Test results from paper PMC7071076, “Antibacterial Activity and Pharmacokinetic Profile of a Promising Antibacterial Agent: 22-(2-Amino-phenylsulfanyl)-22-Deoxypleuromutilin” (Molecules, 2020).
Values after ≈ are worked out from the molar mass of the structure shown.

Legend:
[1] = tested on: E. coli ATCC 25922; assay: MIC testing (broth dilution, 96-well plate); assay type: cell-based; conditions: Escherichia coli, ATCC25922
Description: (§1) The MIC of amphenmulin against MRSA, Escherichia coli, Salmonella typhimurium, Enterococcus faecalis, and Enterococcus faecium were determined using tiamulin as controls. MIC values were measured by the method of previous work. Staphylococcus aureus ATCC 29213 was used as the quality control bacteria, and the quality control range was referred to the Clinical and Laboratory Standards Institute (CLSI). The bacteria solution was diluted to ~10^6 CFU/mL with Mueller–Hinton (MH) broth for MRSA, Escherichia coli and Salmonella typhimurium while Trypticase Soy Broth for Enterococcus faecalis and Enterococcus faecium. Drugs were dissolved in an aqueous solution of N, N-dimethylformamide (DMF) at a concentration of 2560 µg/mL, and then diluted with broth to prepare working solution (1280 µg/mL). The drug susceptibility testing was performed in 96-well plate. A total of 20 µL of working solution was added into column 1 and well mixed as a 10-fold dilution, following which Serial 2-fold dilutions were prepared to provide concentration ranges of 128–0.0078 µg/mL. Blank broth (no cultures) and bacteria solution (drugs replaced by blank solvent) were set as drug-free controls. Each 96-well plate was cultured at 37 °C for 24 h. The MIC value is the lowest concentration of amphenmulin which inhibits the visible growth of bacteria. The experiment was repeated three times.

[2] = tested on: E. faecalis ATCC 29212; assay: MIC testing (broth dilution, 96-well plate); assay type: cell-based; conditions: Enterococcus faecalis, ATCC29212
Description: as §1

[3] = tested on: E. faecium ATCC 35667; assay: MIC testing (broth dilution, 96-well plate); assay type: cell-based; conditions: Enterococcus faecium, ATCC35667
Description: as §1

[4] = tested on: S. aureus ATCC 29213; assay: MIC testing (broth dilution, 96-well plate); assay type: cell-based; conditions: Staphylococcus aureus, ATCC29213
Description: as §1

[5] = tested on: S. typhimurium ATCC 14028; assay: MIC testing (broth dilution, 96-well plate); assay type: cell-based; conditions: Salmonella enterica
Description: as §1

[6] = tested on: MRSA N20; assay: MIC testing, clinical strain; assay type: cell-based; conditions: Staphylococcus aureus
Text: (§2) Methicillin-resistant Staphylococcus aureus (MRSA) ATCC 43300, Staphylococcus aureus ATCC 29213, Escherichia coli ATCC 25922, Salmonella typhimurium ATCC 14028, Enterococcus faecalis ATCC 29212, and Enterococcus faecium ATCC 35667 were obtained from the China Institute of Veterinary Drug Control (Beijing, China). Five clinical strains of MRSA (N7, N9, N20, N30, and N54) were isolated from diseased pig tissues of South China Agricultural University and Foshan University Animal Hospital. All clinical strains were identified as MRSA by Gram stain, catalase reaction, coagulase test, staphylococcus API identification system test, MecA gene test, and methicillin MIC test.
as §1

[7] = tested on: MRSA N30; assay: MIC testing, clinical strain; assay type: cell-based; conditions: Staphylococcus aureus
Text: as §2, §1

[8] = tested on: MRSA N54; assay: MIC testing, clinical strain; assay type: cell-based; conditions: Staphylococcus aureus
Text: as §2, §1

[9] = tested on: MRSA N7; assay: MIC testing, clinical strain; assay type: cell-based; conditions: Staphylococcus aureus
Text: as §2, §1

[10] = tested on: MRSA N9; assay: MIC testing, clinical strain; assay type: cell-based; conditions: Staphylococcus aureus
Text: as §2, §1

[11] = tested on: MRSA; assay: MIC against MRSA (summary over strains); assay type: cell-based; conditions: Staphylococcus aureus, range over strains, read-out: minimal inhibitory concentration
Description: as §1

[12] = tested on: MRSA ATCC 43300; assay: MRSA wound infection model: wound size; assay type: in vivo, mice; conditions: after treatment for three days; 100 μL drug (3 mg/mL) on the wound
Description: Six weeks SPF-ICR female mice were used for this study. The Experimental model, inducted of inflammatory in mice by skin excision, was established referring to existing methods with some alterations. The mice were anesthetized with the intravenous injection of 1% sodium pentobarbital. After their hair on the back was shaved, the mice were anesthetized and the back skin was perforated with a biopsy perforator at a depth of fascia injury. The inoculum (50 μL), containing 10^9 CFU/mL of the indicated microorganism (MRSA ATCC 43300), was applied on the wound for three times at 30 min intervals. 100 μL drug (3 mg/mL) was administrated on the wound at 1 h after inoculation for three consecutive days. A total of 100 μL blank matrix was given to the infected control group and the non-infected group in the same way. The wound was wrapped with sterile gauze. During the treatment, all mice were kept individually and free to eat and drink.
The wounds were examined on day 1 and days 3 after treatment. The area of wound were measured according to previous reports with some modifications. In each group, six mice were taken out and anesthetized to take photos and measure the size of the wound as the results.

SMILES: C=C[C@]1(C)C[C@@H](OC(=O)CSc2ccccc2N)[C@]2(C)[C@H](C)CC[C@]3(CCC(=O)[C@H]32)[C@@H](C)[C@@H]1O [Amphenmulin, 22-(2-amino-phenylsulfanyl)-22-deoxypleuromutilin]
- MIC [1]: > 128 µg/mL
- MIC [2]: > 128 µg/mL
- MIC [3]: 0.125 µg/mL (≈ 0.257 µM)
- MIC [4]: 0.0156 µg/mL (≈ 0.0321 µM)
- MIC [5]: > 128 µg/mL
- MIC [6]: 4 µg/mL (≈ 8.24 µM)
- MIC [7]: 8 µg/mL (≈ 16.5 µM)
- MIC [8]: 0.0156 µg/mL (≈ 0.0321 µM)
- MIC [9]: 4 µg/mL (≈ 8.24 µM)
- MIC [10]: 0.0156 µg/mL (≈ 0.0321 µM)
- MIC [11]: 0.0156 to 8 µg/mL (≈ 0.0321 to 16.5 µM)
- wound area [12]: 0.47 ± 0.09 cm^2
